Test results published in PubChem BioAssay AID1259407 (Chemical Carcinogenesis Research Information System (CCRIS), 2018).
Activity calls are given as the source filed them. How the calls were made is not given here.

Tested on: CCRIS mutagenicity, Ames/micronucleus/aberration tests
Experiment: CCRIS mutagenicity studies

Measured: mutagenic call

CN=C=O
inactive: Test System: AMES SALMONELLA TYPHIMURIUM, Strain/Indicator: TA97A, Metabolic Activation: NONE, Method: PREINCUBATION inactive; negative | Test System: AMES SALMONELLA TYPHIMURIUM, Strain/Indicator: TA97A, Metabolic Activation: RAT, LIVER, S-9, AROCLOR 1254, Method: PREINCUBATION inactive; negative | Test System: AMES SALMONELLA TYPHIMURIUM, Strain/Indicator: TA97A, Metabolic Activation: RAT, LIVER, S-9, BETA-NAPHTHOFLAVONE, Method: PREINCUBATION inactive; negative | Test System: AMES SALMONELLA TYPHIMURIUM, Strain/Indicator: TA97A, Metabolic Activation: RAT, LIVER, S-9, SODIUM PHENOBARBITONE, Method: PREINCUBATION inactive; negative | Test System: AMES SALMONELLA TYPHIMURIUM, Strain/Indicator: TA98, Metabolic Activation: HAMSTER, LIVER, S-9, AROCLOR 1254, Method: STANDARD PLATE inactive; negative | Test System: AMES SALMONELLA TYPHIMURIUM, Strain/Indicator: TA98, Metabolic Activation: NONE, Method: PREINCUBATION inactive; negative | Test System: AMES SALMONELLA TYPHIMURIUM, Strain/Indicator: TA98, Metabolic Activation: NONE, Method: STANDARD PLATE inactive; negative | Test System: AMES SALMONELLA TYPHIMURIUM, Strain/Indicator: TA98, Metabolic Activation: RAT, LIVER, S-9, AROCLOR 1254, Method: PREINCUBATION inactive; negative | Test System: AMES SALMONELLA TYPHIMURIUM, Strain/Indicator: TA98, Metabolic Activation: RAT, LIVER, S-9, AROCLOR 1254, Method: STANDARD PLATE inactive; negative | Test System: AMES SALMONELLA TYPHIMURIUM, Strain/Indicator: TA98, Metabolic Activation: RAT, LIVER, S-9, BETA-NAPHTHOFLAVONE, Method: PREINCUBATION inactive; negative | Test System: AMES SALMONELLA TYPHIMURIUM, Strain/Indicator: TA98, Metabolic Activation: RAT, LIVER, S-9, SODIUM PHENOBARBITONE, Method: PREINCUBATION inactive; negative | Test System: AMES SALMONELLA TYPHIMURIUM, Strain/Indicator: TA100, Metabolic Activation: HAMSTER, LIVER, S-9, AROCLOR 1254, Method: STANDARD PLATE inactive; negative | Test System: AMES SALMONELLA TYPHIMURIUM, Strain/Indicator: TA100, Metabolic Activation: NONE, Method: STANDARD PLATE inactive; negative | Test System: AMES SALMONELLA TYPHIMURIUM, Strain/Indicator: TA100, Metabolic Activation: RAT, LIVER, S-9, AROCLOR 1254, Method: PREINCUBATION inactive; negative | Test System: AMES SALMONELLA TYPHIMURIUM, Strain/Indicator: TA100, Metabolic Activation: RAT, LIVER, S-9, AROCLOR 1254, Method: STANDARD PLATE inactive; negative | Test System: AMES SALMONELLA TYPHIMURIUM, Strain/Indicator: TA100, Metabolic Activation: RAT, LIVER, S-9, BETA-NAPHTHOFLAVONE, Method: PREINCUBATION inactive; negative | Test System: AMES SALMONELLA TYPHIMURIUM, Strain/Indicator: TA100, Metabolic Activation: RAT, LIVER, S-9, SODIUM PHENOBARBITONE, Method: PREINCUBATION inactive; negative | Test System: AMES SALMONELLA TYPHIMURIUM, Strain/Indicator: TA102, Metabolic Activation: NONE, Method: PREINCUBATION inactive; negative | Test System: AMES SALMONELLA TYPHIMURIUM, Strain/Indicator: TA102, Metabolic Activation: RAT, LIVER, S-9, AROCLOR 1254, Method: PREINCUBATION inactive; negative | Test System: AMES SALMONELLA TYPHIMURIUM, Strain/Indicator: TA102, Metabolic Activation: RAT, LIVER, S-9, BETA-NAPHTHOFLAVONE, Method: PREINCUBATION inactive; negative | Test System: AMES SALMONELLA TYPHIMURIUM, Strain/Indicator: TA102, Metabolic Activation: RAT, LIVER, S-9, SODIUM PHENOBARBITONE, Method: PREINCUBATION inactive; negative | Test System: AMES SALMONELLA TYPHIMURIUM, Strain/Indicator: TA104, Metabolic Activation: RAT, LIVER, S-9, AROCLOR 1254, Method: PREINCUBATION inactive; negative | Test System: AMES SALMONELLA TYPHIMURIUM, Strain/Indicator: TA104, Metabolic Activation: RAT, LIVER, S-9, BETA-NAPHTHOFLAVONE, Method: PREINCUBATION inactive; negative | Test System: AMES SALMONELLA TYPHIMURIUM, Strain/Indicator: TA104, Metabolic Activation: RAT, LIVER, S-9, SODIUM PHENOBARBITONE, Method: PREINCUBATION inactive; negative | Test System: AMES SALMONELLA TYPHIMURIUM, Strain/Indicator: TA1535, Metabolic Activation: HAMSTER, LIVER, S-9, AROCLOR 1254, Method: STANDARD PLATE inactive; negative | Test System: AMES SALMONELLA TYPHIMURIUM, Strain/Indicator: TA1535, Metabolic Activation: NONE, Method: STANDARD PLATE inactive; negative | Test System: AMES SALMONELLA TYPHIMURIUM, Strain/Indicator: TA1535, Metabolic Activation: RAT, LIVER, S-9, AROCLOR 1254, Method: STANDARD PLATE inactive; negative | Test System: AMES SALMONELLA TYPHIMURIUM, Strain/Indicator: TA1537, Metabolic Activation: HAMSTER, LIVER, S-9, AROCLOR 1254, Method: STANDARD PLATE inactive; negative | Test System: AMES SALMONELLA TYPHIMURIUM, Strain/Indicator: TA1537, Metabolic Activation: NONE, Method: STANDARD PLATE inactive; negative | Test System: AMES SALMONELLA TYPHIMURIUM, Strain/Indicator: TA1537, Metabolic Activation: RAT, LIVER, S-9, AROCLOR 1254, Method: STANDARD PLATE inactive; negative | Test System: AMES SALMONELLA TYPHIMURIUM, Strain/Indicator: TA1538, Metabolic Activation: HAMSTER, LIVER, S-9, AROCLOR 1254, Method: STANDARD PLATE inactive; negative | Test System: AMES SALMONELLA TYPHIMURIUM, Strain/Indicator: TA1538, Metabolic Activation: NONE, Method: STANDARD PLATE inactive; negative | Test System: AMES SALMONELLA TYPHIMURIUM, Strain/Indicator: TA1538, Metabolic Activation: RAT, LIVER, S-9, AROCLOR 1254, Method: STANDARD PLATE inactive; negative | Test System: MOUSE LYMPHOMA, Strain/Indicator: L5178Y (TK+/TK-), Metabolic Activation: RAT, LIVER, S-9, AROCLOR 1254, Method: SUSPENSION/PLATE inactive; negative. reevaluation of results: negative
